According to PMC6508677, “Identification of druggable small molecule antagonists of the Plasmodium falciparum hexose transporter PfHT and assessment of ligand access to the glucose permeation pathway via FLAG-mediated protein engineering” (PLoS ONE, 2019):
Values joined by “and” are separate entries in the source; they are usually repeats but may differ in a detail not shown here. Equal values may be shown once. Read-outs that look alike come from different tables or passages of the source.

Tested on: P. falciparum strain 3D7
Assay: P. falciparum growth inhibition assay (Picogreen DNA content, 3 days)
Type: cell-based, Plasmodium falciparum
Settings: for EC50: P. falciparum 3D7 intraerythrocytic forms, 3 days, mean, read-out: EC50 (IC50 in Fig 4A) for inhibition of parasite growth; for IC50: 3D7, 3D7, Expt 1-3, read-out: IC50 for inhibition of parasite growth, individual experiments
Protocol: P. falciparum strain 3D7 was obtained from the Malaria Research and Reference Reagent Resource Center (MR4, ATCC, Manassas, VA). Parasites were cultured in a 2% suspension of human erythrocytes and RPMI 1640 (Sigma) medium supplemented with 27 mM sodium bicarbonate, 11 mM glucose, 5 mM HEPES, 1 mM sodium pyruvate, 0.37 mM hypoxanthine, 0.01 mM thymidine, 10 μg/ml gentamicin, and 0.5% Albumax (Gibco) at 37°C, 5% O2/ 5% CO2 / 90% N2 atmosphere as previously described.
Asynchronous P. falciparum cultures were diluted to 1% parasitemia and were treated with compounds at concentrations ranging from 0.195 μM—100 μM. Growth inhibition assays were performed in 100 μl cultures in opaque 96-well plates. Parasite growth was quantified after 3 days by measuring DNA content using Picogreen (Life Technologies)[22]. Fluorescence was measured by a FLUOstar Omega microplate reader (BMG Labtech) at 485 nm excitation and 528 nm emission. IC50 values were calculated by least squares nonlinear regression analysis using GraphPad Prism 6.0 software.

[1] = Plasmodium falciparum, 3D7, 72 h

| SMILES | EC50 [µM] | IC50 (Plasmodium falciparum) [µM] | EC50 [1] [µM] | Parasite kill curve raw reading (Picogreen fluorescence), duplicate wells of Expt 1-3 (concentration 0.195312 (μM)) | Parasite kill curve raw reading (Picogreen fluorescence), duplicate wells of Expt 1-3 (concentration 0.390625 (μM)) | Parasite kill curve raw reading (Picogreen fluorescence), duplicate wells of Expt 1-3 (concentration 0.78125 (μM)) | Parasite kill curve raw reading (Picogreen fluorescence), duplicate wells of Expt 1-3 (concentration 1.5625 (μM)) | Parasite kill curve raw reading (Picogreen fluorescence), duplicate wells of Expt 1-3 (concentration 3.125 (μM)) | Parasite kill curve raw reading (Picogreen fluorescence), duplicate wells of Expt 1-3 (concentration 6.25 (μM)) | Parasite kill curve raw reading (Picogreen fluorescence), duplicate wells of Expt 1-3 (concentration 25 (μM)) | Parasite kill curve raw reading (Picogreen fluorescence), duplicate wells of Expt 1-3 (concentration 50 (μM)) | Parasite kill curve raw reading (Picogreen fluorescence), duplicate wells of Expt 1-3 (concentration 12.5 (μM)) |
| --- | --- | --- | --- | --- | --- | --- | --- | --- | --- | --- | --- | --- |
| Cc1ccc(S(=O)(=O)CCNC(=O)c2c(-c3c(Cl)cccc3Cl)noc2C)cc1 [WU-1, 3-(2,6-dichlorophenyl)-5-methyl-N-[2-(4-methylbenzenesulfonyl)ethyl]-1,2-oxazole-4-carboxamide] | 5.49 | 4.66 | 5.5 ± 0.6 | 31647.2 and 35553.2 and 49650 and 55614 and 44370 and 49901 | 38759.2 and 38857.2 and 52621 and 61368 and 45376 and 55663 | 33807.2 and 31780.2 and 49005 and 55418 and 44284 and 47486 | 30912.2 and 34557.2 and 48254 and 53201 and 42714 and 48519 | 26767.2 and 25415.2 and 46950 and 47685 and 35273 and 35563 | 20627.2 and 20040.2 and 32177 and 39080 and 23717 and 27707 | 7109.17 and 9009.17 and 13213 and 12190 and 10238 and 11917 | 6656.17 and 8203.17 and 11766 and 11899 and 11265 and 11133 | – |
| COc1c(Br)cc([N+](=O)[O-])c(OC)c1C(=O)NC(=O)Nc1c(C)cccc1Cl [WU-2, 3-(3-bromo-2,6-dimethoxy-5-nitrobenzoyl)-1-(2-chloro-6-methylphenyl)urea] | – | 21.3 | 22.8 ± 0.8 | 56098 and 51137 and 60240 and 31267.2 and 43585.2 and 60791 | 62198 and 51117 and 53186 and 43543.2 and 40121.2 and 61300 | 60027 and 63524 and 61078 and 36660.2 and 37397.2 and 61445 | 62718 and 60757 and 53560 and 40753.2 and 35617.2 and 59505 | – | – | 31771 and 33221 and 31489 and 18075.2 and 22893.2 and 29768 | – | 44791 and 46211 and 39233 and 29745.2 and 34796.2 and 56088 |
